{
  "source": "patent US5665769A",
  "about": "“Pharmaceutical composition for preventing and treating retinal diseases” (Senju Pharmaceuticals Co., Ltd., priority 1993, dated 1997)",
  "key": {"[1]": {"tested_on": "bovine retinal homogenates", "experiment": "Peroxidation of bovine retinal homogenate by light exposure in presence of hematoporphyrin, TBA value (Experiment 2 (A))", "type": "biochemical", "settings": "10^-4 M", "protocol": "(A) In vitro experiment using bovine retinal homogenates\nAntioxidative effects of 2-O-octadecylascorbic acid on peroxidation caused by light exposure of bovine retinal homogenates in the presence of hematoporphyrin (hereinafter referred to as HPP) were examined.\n(1) HPP (100 μM, dissolved in ethanol), 2-O-octadecylascorbic acid (10^-4 M) and water were added to a retinal homogenate prepared by the same manner as that of the above Experiment 1 (A) Method (1). The mixture was irradiated with a fluorescent lamp (daylight lamp, 15 W, 3000 lux) from 20 cm above for 1 hour. The final concentration of ethanol in the reaction mixture was adjusted to 2%.\n(2) One hour after the light exposure, according to the same manner as that of the above Experiment 1 (A) Method (3), lipidperoxides were determined by the TBA reaction and proteins were determined using Bio-Rad Protein Assay Kit (trade name)."}, "retina (ERG in rats) [2]": {"tested_on": "retina (ERG in rats)", "experiment": "ERG in rats after light exposure for 3 days (Experiment 2 (B-2), Method 1)", "type": "in vivo", "settings": "5.0% suspension, oral 200 mg/kg/day on day of light exposure, 100 mg/kg/day other days; light 3 days", "protocol": "FIG. 4 is a graph showing the b-wave amplitude of ERG in rats after light exposure for 3 days in Experiment 2 (B-2)(Method 1). The abscissa indicates time (day) after light exposure and the ordinate indicates b-wave amplitude (mv).\n(B-2) Evaluation by ERG determination\nRats were subjected to dark adaptation for 24 hours. Continuous light exposure for 20 hours was repeated for 3 successive days using a green fluorescent lamp (490-580 nm), the illumination intensity of which was adjusted to 600 to 700 lux. ERG was measured for 3 successive days after dark adaptation for 2 hours after completion of everyday light exposure. After that, the rats were reared in a dark room, and ERG was measured on the 7th day after the light exposure, and evaluated for the amplitude of a-wave and b-wave and the latency of a-wave. From the day before the light exposure, a 5.0% 2-O-octadecylascorbic acid suspension or 5.0% gum arabic solution (control) was orally administered twice a day (200 mg/kg/day) on the day of the light exposure and once a day (100 mg/kg/day) on other days."}, "retina (rat)": {"tested_on": "retina (rat)", "experiment": "Retinal light damage in rats, histopathology and retinal thickness (Experiment 2 (B-1))", "type": "in vivo", "set-up": "key to Vacuolation of retinal pigment epithelium / Disarrangement or vacuolation of inner and outer segments of visual cells / Infiltration of macrophage / Pyknosis and nuclear disappearance in outer nuclear layer / Thinning of retinal entire layer: -: not observable; ±: slightly observable; +: observable; ++: remarkably observable", "settings": "for Vacuolation of retinal pigment epithelium / Disarrangement or vacuolation of inner and outer segments of visual cells / Infiltration of macrophage / Pyknosis and nuclear disappearance in outer nuclear layer / Thinning of retinal entire layer: one line per animal", "protocol": "(B) In vivo experiment by light exposure in rats\n(B-1) Evaluation by retinal pathological tissues and rhodopsin amount\nRats were subjected to dark adaptation for 72 hours. Then the rats were irradiated continuously for 12 hours using a green fluorescent lamp (10 W, 490-580 nm), the illumination intensity of which was adjusted to 2000 to 2400 lux. A suspension of 1.5% or 5.0% 2-O-octadecylascorbic acid was orally administered three times a day (90, 300 mg/kg/day) on the day of light exposure, and once a day (30, 100 mg/kg/day) after that. To the control group was administered 5.0% gum arabic solution (control) according to the same schedule. After completion of the light exposure, the rats were reared in a dark room and sacrificed on the 5th day. The right eyes were marked with ink in the upper part and fixed with 2% paraformaldehyde and 2% glutaraldehyde solutions. Histopathological evaluation was made using a light microscope and the thickness of retinae (thickness of retinal entire layer and outer nuclear layer) was measured. The left eyes were stored under freezing conditions at -20° C. for rhodopsin determination after removal of the cornea, lens and vitreous body."}, "mice": {"tested_on": "mice", "experiment": "Acute toxicity test in mice (Experiment 3)", "type": "in vivo", "protocol": "Acute toxicity test of 2-O-octadecylascorbic acid\n2-O-octadecylascorbic acid was tested for the acute toxicity test in mice. As a result, no mouse died even in oral administration of 1000 mg/kg. This compound has therefore low toxicity."}, "retina (ERG in rats) [3]": {"tested_on": "retina (ERG in rats)", "experiment": "ERG changes induced by intravitreous injection of ferrous sulfate in rats (Experiment 1 (B-2))", "type": "in vivo, SD rats", "settings": "30 mg/kg oral", "description": "FIG. 1 is a graph showing the a-wave amplitude of ERG in rats after intravitreous injection of ferrous ion in Experiment 1 (B-2). The abscissa indicates time (hour) and the ordinate indicates percentage (%) relative to the initial amplitude. In FIGS. 1 to 5, the compound (I) is 2-O-octadecylascorbic acid. FIG. 2 is a graph showing the b-wave latency of ERG in rats after intravitreous injection of ferrous ion in Experiment 1 (B-2). The abscissa indicates time (hour) and the ordinate indicates percentage (%) relative to the initial amplitude. FIG. 3 is a graph showing the b-wave amplitude of ERG in rats after intravitreous injection of ferrous ion in Experiment 1 (B-2). The abscissa indicates time (hour) and the ordinate indicates percentage (%) relative to the initial amplitude. (B-2) Evaluation by Electroretinogram (hereinafter referred to as ERG) determination Effects of oral administration of 2-O-octadecylascorbic acid (30 mg/kg) on the changes of ERG induced by intravitreous injection of ferrous sulfate in rats were examined. Twelve SD rats (7 weeks old) were fasted from the previous day. A 7.5 mM ferrous sulfate (5 μl) solution was injected intravitreously into each of the left eyes. A 1.5% suspension of 2-O-octadecylascorbic acid (30 mg/kg) or a 5% solution of gum arabic (control) was firstly administered orally 2 hours before the ferrous ion injection, and thereafter administered three times every 3 hours and then three times every 5 hours. ERG was determined 6, 9 and 24 hours after the ferrous ion injection and evaluated for the latency and amplitude of a-wave and b-wave."}, "[4]": {"settings": "1.5% suspension, mean ± S.D., n=5"}, "[5]": {"settings": "1.5% suspension, Nos. 1-5 in order"}, "[6]": {"settings": "5.0% suspension, mean ± S.D., n=3"}, "[7]": {"settings": "5.0% suspension, Nos. 1-3 in order"}, "[8]": {"settings": "9 hours after ferrous ion injection, compared to control"}},
  "note": "Several values for one entry are separate records, joined by “and”; a condition that tells them apart may be missing. Equal entries are not always repeated.",
  "data": [
    {"smiles": "CCCCCCCCCCCCCCCCCCOC1=C(O)[C@@H]([C@@H](O)CO)OC1=O", "note": "[2-O-octadecylascorbic acid]", "values": [
      {"measurement": "inhibitory effect on light-induced peroxidation", "setting": "[1]", "result": "significant inhibitory effect was observed"},
      {"measurement": "Retina: TBA value", "setting": "[1]; HPP 100 μM, light 3000 lux 1 hour, mean ± S.D., n=3, p < 0.001 vs control", "result": "1.31 ± 0.21 nM malondialdehyde/mg protein"},
      {"measurement": "decrease of the b-wave amplitude", "setting": "retina (ERG in rats) [2]", "result": "the tendency to inhibit the decrease of the b-wave amplitude was observed"},
      {"measurement": "examples (animals) with remarkably observed retinal lesions", "setting": "retina (rat); 1.5% suspension", "result": "four of five examples"},
      {"measurement": "Vacuolation of retinal pigment epithelium", "setting": "retina (rat); 1.5% suspension (90 mg/kg/day oral on day of exposure, then 30), Nos. 1-5 in order", "result": "+"},
      {"measurement": "Thickness of outer nuclear layer, lesion", "setting": "retina (rat); [4]", "result": "16.0 ± 7.2", "unit": "µM"},
      {"measurement": "Thickness of outer nuclear layer, near optic disk", "setting": "retina (rat); [4]", "result": "39.0 ± 8.8", "unit": "µM"},
      {"measurement": "Thickness of retinal entire layer, lesion", "setting": "retina (rat); [4]", "result": "88.5 ± 22.3", "unit": "µM"},
      {"measurement": "Thickness of retinal entire layer, near optic disk", "setting": "retina (rat); [4]", "result": "135.5 ± 27.9", "unit": "µM"},
      {"measurement": "Disarrangement or vacuolation of inner and outer segments of visual cells", "setting": "retina (rat); [5]", "result": "++ (4×) and +"},
      {"measurement": "Infiltration of macrophage", "setting": "retina (rat); [5]", "result": "++ (4×) and -"},
      {"measurement": "Pyknosis and nuclear disappearance in outer nuclear layer", "setting": "retina (rat); [5]", "result": "++ (4×) and ±"},
      {"measurement": "Thinning of retinal entire layer", "setting": "retina (rat); [5]", "result": "++ (4×) and -"},
      {"measurement": "examples (animals) with remarkably observed retinal lesions", "setting": "retina (rat); 5.0% suspension", "result": "one of three examples"},
      {"measurement": "Vacuolation of retinal pigment epithelium", "setting": "retina (rat); 5.0% suspension (300 mg/kg/day oral on day of exposure, then 100), Nos. 1-3 in order", "result": "- and + (2×)"},
      {"measurement": "thickness of the retinal entire layer near optic disk (in words)", "setting": "retina (rat); 5.0% suspension, compared with control", "result": "significantly larger than that in the control group"},
      {"measurement": "severity of lesions", "setting": "retina (rat); 5.0% suspension, compared with control group", "result": "not so severe as those of the control group"},
      {"measurement": "Thickness of outer nuclear layer, lesion", "setting": "retina (rat); [6]", "result": "19.2 ± 11.3", "unit": "µM"},
      {"measurement": "Thickness of outer nuclear layer, near optic disk", "setting": "retina (rat); [6]", "result": "48.3 ± 1.4", "unit": "µM"},
      {"measurement": "Thickness of retinal entire layer, lesion", "setting": "retina (rat); [6]", "result": "84.2 ± 16.3", "unit": "µM"},
      {"measurement": "Disarrangement or vacuolation of inner and outer segments of visual cells", "setting": "retina (rat); [7]", "result": "± and + and ++"},
      {"measurement": "Infiltration of macrophage", "setting": "retina (rat); [7]", "result": "- (2×) and ++"},
      {"measurement": "Pyknosis and nuclear disappearance in outer nuclear layer", "setting": "retina (rat); [7]", "result": "± and + and ++"},
      {"measurement": "Thinning of retinal entire layer", "setting": "retina (rat); [7]", "result": "- and + and ++"},
      {"measurement": "thickness of the outer nuclear layer near optic disk (in words)", "setting": "retina (rat); suspension administered groups, compared with control", "result": "tends to be larger than that in the control group"},
      {"measurement": "toxicity", "setting": "mice; acute toxicity, mice, oral", "result": "low toxicity"},
      {"measurement": "mortality", "setting": "mice; mouse, in vivo, po, 1000 mg/kg", "result": "no mouse died"},
      {"measurement": "decrease of the amplitude of a-wave and b-wave", "setting": "retina (ERG in rats) [3]; [8]", "result": "more marked tendency to inhibit the decrease of the amplitude of a-wave and b-wave"},
      {"measurement": "delay of the b-wave latency", "setting": "retina (ERG in rats) [3]; [8]", "result": "the delay of the b-wave latency was significantly inhibited"},
      {"measurement": "recovery of amplitude", "setting": "retina (ERG in rats) [3]; 24 hours after ferrous ion injection, both groups", "result": "The amplitude was not recovered even in the determination after 24 hours"},
      {"measurement": "delay of the latency and decrease of the amplitude of a-wave and b-wave", "setting": "retina (ERG in rats) [3]; from 6 hours after ferrous ion injection, both groups", "result": "strongly observed in both groups"}
    ]}
  ]
}
